# Target: T1, AR-VP16 (Homo sapiens, UniProt P10275)
# T1 sequence (P10275 560-920 limits assumed): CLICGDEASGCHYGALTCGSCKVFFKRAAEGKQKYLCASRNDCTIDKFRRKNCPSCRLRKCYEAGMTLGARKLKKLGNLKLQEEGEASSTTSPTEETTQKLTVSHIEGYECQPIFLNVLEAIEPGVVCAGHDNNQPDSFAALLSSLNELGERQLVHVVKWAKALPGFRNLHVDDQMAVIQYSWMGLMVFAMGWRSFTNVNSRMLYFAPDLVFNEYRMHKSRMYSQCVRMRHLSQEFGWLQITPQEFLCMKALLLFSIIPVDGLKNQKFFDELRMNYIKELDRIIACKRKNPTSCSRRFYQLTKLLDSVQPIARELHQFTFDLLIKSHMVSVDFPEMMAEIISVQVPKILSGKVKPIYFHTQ
# Assay: AR-VP16 DNA Binding Assay, antagonist mode (HepG2 cells, 0.1 nM R1881)
# Assay type: cell-based
# Procedure: Cells were transiently transfected using Lipofectin (Life Technologies) according to the manufacturer's protocol. […] Transfected cells were incubated overnight then treated with ligand. […] For antagonist assays, the compounds were serially diluted and 50 μL of compound with RPMI supplemented with charcoal stripped serum plus methyltrienolone (R1881) were added to the cells. The final R1881 concentration used in the antagonist assays was 0.1 nM. Following 48 hour incubation the medium was removed and the cells were lysed in 40 μL of lysis buffer (25 mM Tris Phosphate, 2 mM CDTA, 10% Glycerol, 0.5% Triton X-100, 2 mM DTT).
row,SMILES,IC50 [nM]
1,"CNC(=O)c1ccc(N2C(=S)N(c3ccc(C#N)c4ccccc34)C(=O)C23CCC3)cc1F [Compound 95, 4-(7-(4-Cyanonaphthalen-1-yl)-8-oxo-6-thioxo-5,7-diazaspiro[3.4]octan-5-yl)-2-fluoro-N-methylbenzamide]",< 1000
2,"Cc1cncc(-c2ccc(N3C(=S)N(c4cnc(C#N)c(C)c4)C(=O)C34CCC4)cc2)c1 [Compound 98, 3-Methyl-5-(5-(4-(5-methylpyridin-3-yl)phenyl)-8-oxo-6-thioxo-5,7-diazaspiro[3.4]octan-7-yl)picolinonitrile]",< 1000
3,"CC1(C)C(=O)N(c2cnc(C#N)c(C(F)(F)F)c2)C(=S)N1c1ccc(O)cc1 [Compound 100, 5-(3-(4-Hydroxyphenyl)-4,4-dimethyl-5-oxo-2-thioxoimidazolidin-1-yl)-3-(trifluoromethyl)picolinonitrile]",< 1000
4,"Cc1cc(N2C(=O)C3(CCC3)N(c3ccc(N(C)C4CCN(C)CC4)cc3)C2=S)cnc1C#N [Compound 102, 3-Methyl-5-(5-(4-(methyl(1-methylpiperidin-4-yl)amino)phenyl)-8-oxo-6-thioxo-5,7-diazaspiro[3.4]octan-7-yl)picolinonitrile]",> 1000
5,"Cc1cc(N2C(=O)C3(CCC3)N(c3ccc(-c4cncnc4)cc3)C2=S)cnc1C#N [Compound 103, 3-Methyl-5-(8-oxo-5-(4-(pyrimidin-5-yl)phenyl)-6-thioxo-5,7-diazaspiro[3.4]octan-7-yl)picolinonitrile]",< 1000
6,"CNC(=O)c1ccc(N2C(=S)N(c3cnc(C#N)c(C)c3)C(=O)C23CCC3)cc1Cl [Compound 108, 2-Chloro-4-(7-(6-cyano-5-methylpyridin-3-yl)-8-oxo-6-thioxo-5,7-diazaspiro[3.4]octan-5-yl)-N-methylbenzamide]",< 1000
7,"CNC(=O)c1ccc(N2C(=S)N(c3cnc(C#N)c(C)c3)C(=O)C23CCC3)cc1C(F)(F)F [Compound 109, 4-(7-(6-Cyano-5-methylpyridin-3-yl)-8-oxo-6-thioxo-5,7-diazaspiro[3.4]octan-5-yl)-N-methyl-2-(trifluoromethyl)benzamide]",< 1000
8,"N#Cc1ncc(N2C(=O)C3(CCC3)N(c3cccc4ccccc34)C2=S)cc1C(F)(F)F [Compound 110, 5-(5-(Naphthalen-1-yl)-8-oxo-6-thioxo-5,7-diazaspiro[3.4]octan-7-yl)-3-(trifluoromethyl)picolinonitrile]",< 1000
9,"Cc1cc(N2C(=O)C3(CCC3)N(c3ccc(C4CCOCC4)cc3)C2=S)cnc1C#N [Compound 112, 3-Methyl-5-(8-oxo-5-(4-(tetrahydro-2H-pyran-4-yl)phenyl)-6-thioxo-5,7-diazaspiro[3.4]octan-7-yl)picolinonitrile]",< 1000
10,"Cc1ccc(N2C(=S)N(c3cc(C#N)n(C)c3)C(=O)C23CCC3)cc1 [Compound 114, 1-Methyl-4-(8-oxo-6-thioxo-5-(p-tolyl)-5,7-diazaspiro[3.4]octan-7-yl)-1H-pyrrole-2-carbonitrile]",> 1000
11,"CC(C)(C)OC(=O)N1CCN(c2ccc(N3C(=S)N(c4cnc(C#N)c(C(F)(F)F)c4)C(=O)C34CCC4)cc2)CC1 [Compound 119, tert-Butyl 4-(4-(7-(6-cyano-5-(trifluoromethyl)pyridin-3-yl)-8-oxo-6-thioxo-5,7-diazaspiro[3.4]octan-5-yl)phenyl)piperazine-1-carboxylate]",< 1000
12,"CNS(=O)(=O)c1ccc(N2C(=S)N(c3cnc(C#N)c(C(F)(F)F)c3)C(=O)C23CCC3)cc1 [Compound 120, 4-(7-(6-Cyano-5-(trifluoromethyl)pyridin-3-yl)-8-oxo-6-thioxo-5,7-diazaspiro[3.4]octan-5-yl)-N-methylbenzenesulfonamide]",> 1000
13,"CN1CCN(CCCc2ccc(N3C(=S)N(c4cnc(C#N)c(C(F)(F)F)c4)C(=O)C34CCC4)cc2)CC1 [Compound 124, 5-(5-(4-(3-(4-Methylpiperazin-1-yl)propyl)phenyl)-8-oxo-6-thioxo-5,7-diazaspiro[3.4]octan-7-yl)-3-(trifluoromethyl)picolinonitrile]",< 1000
14,"N#Cc1ncc(N2C(=O)C3(CCC3)N(c3ccc(OCCN4CCCC4)c(F)c3)C2=S)cc1C(F)(F)F [Compound 127, 5-(5-(3-Fluoro-4-(2-(pyrrolidin-1-yl)ethoxy)phenyl)-8-oxo-6-thioxo-5,7-diazaspiro[3.4]octan-7-yl)-3-(trifluoromethyl)picolinonitrile]",< 1000
15,"N#Cc1ncc(N2C(=O)C3(CCC3)N(c3ccc(OCCCC(F)(F)C(F)(F)F)c(F)c3)C2=S)cc1C(F)(F)F [Compound 134, 5-(5-(3-Fluoro-4-((4,4,5,5,5-pentafluoropentyl)oxy)phenyl)-8-oxo-6-thioxo-5,7-diazaspiro[3.4]octan-7-yl)-3-(trifluoromethyl)picolinonitrile]",< 1000
16,"N#Cc1ncc(N2C(=O)C3(CCC3)N(c3ccc(OCCCOCc4ccccc4)c(F)c3)C2=S)cc1C(F)(F)F [Compound 135, 5-(5-(4-(3-(Benzyloxy)propoxy)-3-fluorophenyl)-8-oxo-6-thioxo-5,7-diazaspiro[3.4]octan-7-yl)-3-(trifluoromethyl)picolinonitrile]",< 1000
17,"Cc1ccccc1CCOc1ccc(N2C(=S)N(c3cnc(C#N)c(C(F)(F)F)c3)C(=O)C23CCC3)cc1F [Compound 137, 5-(5-(3-Fluoro-4-(2-methylphenethoxy)phenyl)-8-oxo-6-thioxo-5,7-diazaspiro[3.4]octan-7-yl)-3-(trifluoromethyl)picolinonitrile]",< 1000
18,"N#Cc1ncc(N2C(=O)C3(CCC3)N(c3ccc(OCCC(F)(F)C(F)(F)F)c(F)c3)C2=S)cc1C(F)(F)F [Compound 139, 5-(5-(3-Fluoro-4-(3,3,4,4,4-pentafluorobutoxy)phenyl)-8-oxo-6-thioxo-5,7-diazaspiro[3.4]octan-7-yl)-3-(trifluoromethyl)picolinonitrile]",< 1000
19,"N#Cc1ncc(N2C(=O)C3(CCC3)N(c3ccc(OCCc4ccncc4)c(F)c3)C2=S)cc1C(F)(F)F [Compound 142, 5-(5-(3-Fluoro-4-(2-(pyridin-4-yl)ethoxy)phenyl)-8-oxo-6-thioxo-5,7-diazaspiro[3.4]octan-7-yl)-3-(trifluoromethyl)picolinonitrile]",< 1000
20,"N#Cc1ncc(N2C(=O)C3(CCC3)N(c3ccc(OCCCc4cccnc4)c(F)c3)C2=S)cc1C(F)(F)F [Compound 145, 5-(5-(3-Fluoro-4-(3-(pyridin-3-yl)propoxy)phenyl)-8-oxo-6-thioxo-5,7-diazaspiro[3.4]octan-7-yl)-3-(trifluoromethyl)picolinonitrile]",< 1000
21,"N#Cc1ncc(N2C(=O)C3(CCC3)N(c3ccc(OCc4ccccn4)c(F)c3)C2=S)cc1C(F)(F)F [Compound 147, 5-(5-(3-Fluoro-4-(pyridin-2-ylmethoxy)phenyl)-8-oxo-6-thioxo-5,7-diazaspiro[3.4]octan-7-yl)-3-(trifluoromethyl)picolinonitrile]",< 1000
22,"N#Cc1ncc(N2C(=O)C3(CCC3)N(c3ccc(OCc4cccnc4)c(F)c3)C2=S)cc1C(F)(F)F [Compound 148, 5-(5-(3-Fluoro-4-(pyridin-3-ylmethoxy)phenyl)-8-oxo-6-thioxo-5,7-diazaspiro[3.4]octan-7-yl)-3-(trifluoromethyl)picolinonitrile]",< 1000
23,"N#Cc1ncc(N2C(=O)C3(CCC3)N(c3ccc(OCc4ccncc4)c(F)c3)C2=S)cc1C(F)(F)F [Compound 156, 5-(5-(3-Fluoro-4-(pyridin-4-ylmethoxy)phenyl)-8-oxo-6-thioxo-5,7-diazaspiro[3.4]octan-7-yl)-3-(trifluoromethyl)picolinonitrile]",< 1000
24,"CN1CCN(CCCOc2ccc(N3C(=S)N(c4cnc(C#N)c(C(F)(F)F)c4)C(=O)C34CCC4)cc2F)CC1 [Compound 157, 5-(5-(3-Fluoro-4-(3-(4-methylpiperazin-1-yl)propoxy)phenyl)-8-oxo-6-thioxo-5,7-diazaspiro[3.4]octan-7-yl)-3-(trifluoromethyl)picolinonitrile]",< 1000
25,"COCCOc1ccc(N2C(=S)N(c3ccc(C#N)c4ncccc34)C(=O)C23CCC3)cc1F [Compound 171, 5-(5-(3-Fluoro-4-(2-methoxyethoxy)phenyl)-8-oxo-6-thioxo-5,7-diazaspiro[3.4]octan-7-yl)quinoline-8-carbonitrile]",< 1000
26,"N#Cc1ccc(N2C(=O)C3(CCC3)N(c3ccc(OCCc4ccccn4)c(F)c3)C2=S)c2cccnc12 [Compound 172, 5-(5-(3-Fluoro-4-(2-(pyridin-2-yl)ethoxy)phenyl)-8-oxo-6-thioxo-5,7-diazaspiro[3.4]octan-7-yl)quinoline-8-carbonitrile]",< 1000
27,"CN1CCN(CCOc2ccc(N3C(=S)N(c4ccc(C#N)c5ncccc45)C(=O)C34CCC4)cc2F)CC1 [Compound 173, 5-(5-(3-Fluoro-4-(2-(4-methylpiperazin-1-yl)ethoxy)phenyl)-8-oxo-6-thioxo-5,7-diazaspiro[3.4]octan-7-yl)quinoline-8-carbonitrile]",< 1000
28,"N#Cc1ncc(N2C(=O)C3(CCC3)N(c3ccc(OCCN4CCNCC4)c(F)c3)C2=S)cc1C(F)(F)F [Compound 174, 5-(5-(3-fluoro-4-(2-(piperazin-1-yl)ethoxy)phenyl)-8-oxo-6-thioxo-5,7-diazaspiro[3.4]octan-7-yl)-3-(trifluoromethyl)picolinonitrile]",< 1000

# From patent US9108944B2, “Androgen receptor modulators and uses thereof” (ARAGON PHARMACEUTICALS, INC., priority 2010, dated 2015)
